Target: T1, human GPR119 receptor (Homo sapiens, UniProt Q8TDV5, S329A/T327A)
T1 construct: N-terminal leader […]; expressed in transfected cells
T1 sequence (Q8TDV5 with tags, fused parts or gaps T327A/S329A): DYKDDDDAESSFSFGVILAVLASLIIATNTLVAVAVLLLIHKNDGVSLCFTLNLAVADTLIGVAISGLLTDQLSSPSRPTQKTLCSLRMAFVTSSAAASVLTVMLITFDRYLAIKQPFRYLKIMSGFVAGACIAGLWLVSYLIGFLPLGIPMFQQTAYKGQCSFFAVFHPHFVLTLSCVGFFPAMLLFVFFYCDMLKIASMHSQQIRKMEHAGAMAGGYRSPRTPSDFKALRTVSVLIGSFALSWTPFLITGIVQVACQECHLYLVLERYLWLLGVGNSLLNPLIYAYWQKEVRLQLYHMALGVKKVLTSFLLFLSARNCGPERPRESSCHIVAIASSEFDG
Experiment: cAMP assay (LANCE cAMP-384) in HEK293 cells stably expressing mutant human GPR119 receptor
Type: cell-based
Details: HEK293, 20 min; single concentration 10 μM; given where no EC50 value could be determined; read-out: % stimulation at 10 μM
Summary of the method: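 Agonist EC50 came from nonlinear regression over 12 concentrations (30 μM–100 pM), with % stimulation at 10 μM where no EC50 was obtained. Cells: stable HEK293 with mutant human GPR119 (T327A/S329A), 20 min compound at 37° C; cAMP read by LANCE kit with standard curve.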

SMILES	activation at 10 µM
CC(C)OC(=O)N1CCC(ON=C2CCN(c3cc(F)c(C4=NCCN4)cc3F)CC2)CC1 [Example 19-1, 4-{1-[4-(4,5-Dihydro-1H-imidazol-2-yl)-2,5-difluoro-phenyl]-piperidin-4-ylideneaminooxy}-piperidine-1-carboxylic acid isopropyl ester]	53%
Cc1cccnc1N1CCC(=NOC2CCN(C(=O)OC(C)C)CC2)CC1 [Example 2-7]	55%

Same assay, conditions: cAMP accumulation, HEK293 cells stably expressing mutant human GPR119; read-out: EC50

SMILES	EC50
CC(C)OC(=O)N1CCC(ON=C2CCN(c3cc(F)c(CN4CCCC4=O)cc3F)CC2)CC1 [Example 6-1, 4-{1-[2,5-Difluoro-4-(2-oxo-pyrrolidin-1-ylmethyl)-phenyl]-piperidin-4-ylideneaminooxy}-piperidine-1-carboxylic acid isopropyl ester]	40 nM
CCNC(=O)NCc1cc(F)c(N2CCC(=NOC3CCN(C(=O)OC(C)C)CC3)CC2)cc1F [Example 16-1, 4-(1-{4-[(3-Ethyl-ureido)-methyl]-2,5-difluoro-phenyl}-piperidin-4-ylideneaminooxy)-piperidine-1-carboxylic acid isopropyl ester]	168 nM
CC(=O)NCc1cc(F)c(N2CCC(=NOC3CCN(C(=O)OC(C)C)CC3)CC2)cc1F [Example 16-2]	141 nM
CC(C)OC(=O)N1CCC(ON=C2CCN(c3cc(F)c([N+](=O)[O-])cc3F)CC2)CC1 [Example 2-62]	304 nM
CC(C)OC(=O)N1CCC(ON=C2CCN(c3ncnc4ccsc34)CC2)CC1 [Example 2-15]	4780 nM
CC(C)OC(=O)N1CCC(ON=C2CCN(c3cc(F)c(-c4ccc[nH]4)cc3F)CC2)CC1 [Example 27-7]	436 nM
CC(C)OC(=O)N1CCC(ON=C2CCN(c3ccc(C=O)c(F)c3)CC2)CC1 [Example 2-20]	703 nM
CC(C)OC(=O)N1CCC(ON=C2CCN(c3ccc(S(C)(=O)=O)cc3F)CC2)CC1 [Example 2-1, 4-[1-(2-Fluoro-4-methanesulfonyl-phenyl)-piperidin-4-ylideneaminooxy]-piperidine-1-carboxylic acid isopropyl ester]	47 nM
CC(C)OC(=O)N1CCC(ON=C2CCN(c3cc(F)c(Cn4cncn4)cc3F)CC2)CC1 [Example 14-18]	1350 nM
CC(C)OC(=O)N1CCC(ON=C2CCN(c3cnccn3)CC2)CC1 [Example 2-11]	> 10000 nM
CC(C)OC(=O)N1CCC(ON=C2CCN(c3nc(C=O)c(Cl)s3)CC2)CC1 [Example 2-25]	> 10000 nM
CC(C)OC(=O)N1CCC(ON=C2CCN(c3ccc(C=O)c(O)c3)CC2)CC1 [Example 2-30]	> 10000 nM
Cc1ccc(-c2cc(F)c(N3CCC(=NOC4CCN(C(=O)OC(C)C)CC4)CC3)cc2F)cn1 [Example 27-30]	435 nM
CC(C)OC(=O)N1CCC(ON=C2CCN(c3nccc(C(F)(F)F)n3)CC2)CC1 [Example 2-66]	> 10000 nM
CC(C)OC(=O)N1CCC(ON=C2CCN(c3ncc(Br)c(N(C)C)n3)CC2)CC1 [Example 2-54]	> 10000 nM
Cc1c(Cl)ncnc1N1CCC(=NOC2CCN(C(=O)OC(C)C)CC2)CC1 [Example 2-52]	653 nM
CC(C)OC(=O)N1CCC(ON=C2CCN(c3cc(F)c(Br)cc3F)CC2)CC1 [Example 2-40]	2000 nM
CC(C)OC(=O)N1CCC(ON=C2CCN(c3cccc(S(C)(=O)=O)c3)CC2)CC1 [Example 32-3]	> 10000 nM
CC(C)OC(=O)N1CCC(ON=C2CCN(c3cc(F)c(-c4cnco4)cc3F)CC2)CC1 [Example 20-1, 4-[1-(2,5-Difluoro-4-oxazol-5-yl-phenyl)-piperidin-4-ylideneaminooxy]-piperidine-1-carboxylic acid isopropyl ester]	100 nM
CCOC(=O)c1cnn(Cc2cc(F)c(N3CCC(=NOC4CCN(C(=O)OC(C)C)CC4)CC3)cc2F)c1 [Example 14-11]	190 nM
CC(C)OC(=O)N1CCC(ON=C2CCN(c3ccc(CO)cc3)CC2)CC1 [Example 2-53]	> 10000 nM
CC(C)OC(=O)N1CCC(ON=C2CCN(c3ccnc(O)c3)CC2)CC1 [Example 2-4]	> 10000 nM
CC(C)OC(=O)N1CCC(ON=C2CCN(c3cc(Cl)c(F)cc3C(=O)O)CC2)CC1 [Example 2-21]	> 10000 nM
CC(C)OC(=O)N1CCC(ON=C2CCN(c3cc(F)c(CNCc4nccs4)cc3F)CC2)CC1 [Example 5-11]	332 nM

Same assay, conditions: the 15th table; read-out: EC50

SMILES	EC50
CC(C)OC(=O)N1CCC(ON=C2CCN(c3cc(F)c(C(=O)NCCO)cc3F)CC2)CC1 [Example 29-11]	84 nM

Same assay, conditions: the 19th table; unit inferred; read-out: EC 50

SMILES	EC50
CCc1cnc(N2CCC(ON=C3CCN(c4cc(F)c(C(=O)N5CCC[C@@H]5CNC)cc4F)CC3)CC2)nc1 [Example 29-135]	297 nM
CCc1cnc(N2CCC(ON=C3CCN(c4cc(F)c(C(=O)N5CCCNCC5)cc4F)CC3)CC2)nc1 [Example 29-114]	392 nM
CCc1cnc(N2CCC(ON=C3CCN(c4cc(F)c(C(=O)N5CCCCC5CN)cc4F)CC3)CC2)nc1 (stereo not drawn) [Example 29-131]	64 nM
CCc1cnc(N2CCC(ON=C3CCN(c4cc(F)c(C(=O)N5CCC(CNC)CC5)cc4F)CC3)CC2)nc1 [Example 29-130]	206 nM
CCc1cnc(N2CCC(ON=C3CCN(c4cc(F)c(C(=O)NCC5CCNC5)cc4F)CC3)CC2)nc1 (stereo not drawn) [Example 29-90]	67 nM
CCc1cnc(N2CCC(ON=C3CCN(c4cc(F)c(C(=O)N5CCC[C@H](N)C5)cc4F)CC3)CC2)nc1 [Example 29-89]	74 nM
CCc1cnc(N2CCC(ON=C3CCN(c4cc(F)c(C(=O)NCCC5CCNCC5)cc4F)CC3)CC2)nc1 [Example 29-112]	38 nM

Same assay, conditions: the 26th table; read-out: EC50

SMILES	EC50
CC(C)OC(=O)N1CCC(ON=C2CCN(c3ccc(S(C)(=O)=O)cn3)CC2)CC1 [Example 46-3]	614 nM

Same assay, conditions: the 27th table; read-out: EC50

SMILES	EC50
[2H]C([2H])(O)c1cc(F)c(N2CCC(=NOC3CCN(C(=O)OC(C)C)CC3)CC2)cc1F [Example 48-2]	18 nM

Same assay, conditions: the 28th table; read-out: EC50

SMILES	EC50
CC(C)OC(=O)N1CCC(ON=C2CCN(c3ncc(-n4cccn4)cc3F)CC2)CC1 [Example 51-2]	558 nM
CC(C)OC(=O)N1CCC(ON=C2CCN(c3ncc(-n4cncn4)cc3F)CC2)CC1 [Example 51-1, 4-(3′-Fluoro-5′-[1,2,4]triazol-1-yl-2,3,5,6-tetrahydro-[1,2]bipyridinyl-4-ylideneaminooxy)-piperidine-1-carboxylic acid isopropyl ester]	327 nM

Same assay, conditions: the 32nd table; read-out: EC50

SMILES	EC50
CS(=O)(=O)c1ccc(N2CCC(=NOC3CCN(c4ncc(Br)cn4)CC3)CC2)c(F)c1 [Example 63-19]	77 nM
Cc1ccnc(N2CCC(ON=C3CCN(c4ccc(S(C)(=O)=O)cc4F)CC3)CC2)n1 [Example 63-16]	765 nM
CS(=O)(=O)c1ccc(N2CCC(=NOC3CCN(c4ccc(C#N)cn4)CC3)CC2)c(F)c1 [Example 63-23]	1300 nM

Same assay, conditions: the 33rd table; read-out: EC50

SMILES	EC50
CC1(COC(=O)N2CCC(ON=C3CCN(c4ccc(S(C)(=O)=O)cc4F)CC3)CC2)CC1 [Example 64-7]	67 nM
CS(=O)(=O)c1ccc(N2CCC(=NOC3CCN(C(=O)OCC4CNCCO4)CC3)CC2)c(F)c1 (stereo not drawn) [Example 64-38]	> 10000 nM
CC#CCOC(=O)N1CCC(ON=C2CCN(c3ccc(S(C)(=O)=O)cc3F)CC2)CC1 [Example 64-4]	152 nM
CN1CCCC1CCOC(=O)N1CCC(ON=C2CCN(c3ccc(S(C)(=O)=O)cc3F)CC2)CC1 (stereo not drawn) [Example 64-27]	> 10000 nM

Same assay, conditions: the 36th table, compounds 66-1 to 66-51; read-out: EC50

SMILES	EC50
CC(C)CCN1CCC(ON=C2CCN(c3ccc(S(C)(=O)=O)cc3F)CC2)CC1 [Example 66-23]	> 10000 nM
Cc1nc(CN2CCC(ON=C3CCN(c4ccc(S(C)(=O)=O)cc4F)CC3)CC2)cs1 [Example 66-14]	> 10000 nM
CC(=O)Nc1ccc(CN2CCC(ON=C3CCN(c4ccc(S(C)(=O)=O)cc4F)CC3)CC2)cc1 [Example 66-39]	> 10000 nM
CC(C)Oc1ccc(CN2CCC(ON=C3CCN(c4ccc(S(C)(=O)=O)cc4F)CC3)CC2)cc1 [Example 66-40]	332 nM
COc1ccc(CN2CCC(ON=C3CCN(c4ccc(S(C)(=O)=O)cc4F)CC3)CC2)c(F)c1 [Example 66-50]	1010 nM

Same assay, conditions: the 37th table, compounds 66-52 to 66-64; read-out: EC50

SMILES	EC50
CCc1ccc(CN2CCC(ON=C3CCN(c4cc(F)c(S(C)(=O)=O)cc4F)CC3)CC2)cc1 [Example 66-55]	37 nM
CCc1ccc([C@@H](C)N2CCC(ON=C3CCN(c4cc(F)c(S(C)(=O)=O)cc4F)CC3)CC2)cc1 [Example 66-64]	> 10000 nM

Same assay, conditions: the 39th table, compounds 67-1 to 67-3; read-out: EC50

SMILES	EC50
Cc1ccc(N2CCC(ON=C3CCN(c4ccc(S(C)(=O)=O)cc4F)CC3)CC2)cn1 [Example 67-3]	745 nM

Same assay, conditions: the 41st table, compounds 73-1, 73-2; unit inferred; read-out: EC50

SMILES	EC50
CS(=O)(=O)c1ccc(N2CCC(=NOC3CCN(C(=O)N4CCCC4)CC3)CC2)c(F)c1 [Example 73-2]	1510 nM

Same assay, conditions: the 43rd table, compounds 75-1 to 75-38; read-out: EC50

SMILES	EC50
CC(C)OC(=O)N1CCC(ON=C2CCN(c3cc(F)c(CC(=O)NCC4CCN(C)C4)cc3F)CC2)CC1 (stereo not drawn) [Example 75-33]	128 nM
CC(C)OC(=O)N1CCC(ON=C2CCN(c3cc(F)c(CC(=O)N4CCC(CN5CCCCC5)C4)cc3F)CC2)CC1 (stereo not drawn) [Example 75-35]	171 nM

Same assay, conditions: the 44th table, compounds 77-1 to 77-14; read-out: EC50

SMILES	EC50
CCc1cnc(N2CCC(ON=C3CCN(c4cc(F)c(CC(=O)N(C)C)cc4F)CC3)CC2)nc1 [Example 77-3]	18 nM

From US8293729B2 (Boehringer Ingelheim International GmbH, priority 2009, dated 2012)
